Results from patent US11357971B2, “Ion pump with hyperbranched polymers” (OBOE IPR AB, priority 2016, dated 2022).

Tests used:
[1] = reported in literature (ref. 13); cited from earlier work
[2] = tested on: Arabidopsis thaliana seedlings (root apical meristem); assay: Root growth rate of A. thaliana seedlings during OEIP delivery; assay type: in vivo; details: for effect on root growth rate: OEIP delivery, 60 min, compared with non-targeted seedlings
Source text: The dPG-based OEIPs were used for in vivo experiments on a highly accessible model plant system suitable for live-cell imaging in the intact organism. Specifically, the apical root meristem and early elongation zone of four-day-old Arabidoposis thaliana seedlings positioned on agar gel were targeted for delivery of IAA via the OEIP. Root tips were monitored using a horizontally oriented Nikon AZ100 spectral macro-confocal laser-scanning microscope system schematically illustrated in FIG. 3a. In this arrangement, seedlings were positioned and imaged vertically.
As a negative control, benzoic acid^15 was delivered by the OEIP device, operated in the same configuration.
(§1) To this end, seeds of both genotypes and wild-type Col-0 were surface sterilized with 70% ethanol for 1 min, incubated in pool cleaner (Biltema, Sweden; one tablet per 2000 ml H2O) for 12 min, and washed four times with sterile, distilled water (dH2O). After 3 days at 4° C. in the dark, seeds were plated and grown on ½ Murashige and Skoog (MS) (Duchefa Biochemie, Haarlem, The Netherlands), 0.5 g/L 2-(N-morpholino)ethanesulfonic acid (MES, Sigma-Aldrich), 1% sucrose, 0.7% plant agar (Duchefa) growth medium plates (120×120 mm square petri-dishes; Gosselin) at pH 5.6 in vertical orientation at 23° C. with 16 h of light per day. 12 h prior to the start of the experiments, 4 days post-germination (dpg) seedlings were positioned onto fresh plates of identical MS media composition additionally supplemented with 0.01 M KCl.
Immediately prior to the experiments, the OEIPs were operated in a target solution of 10^−5 M KCl(aq), and the OEIP device tip was kept from drying excessively during sample loading and OEIP positioning. A Keithley 2612b SourceMeter (Keithley Instruments Inc, Cleveland, Ohio, USA) and custom LabVIEW (National Instruments Corporation, Austin, Tex., USA) software was use to source current and record voltage. The OEIP device was turned on immediately prior to the first imaging sequence and operated at a constant electrical current of 1 μA. For these experiments, the OEIP delivery tip was submerged in the MS media in close proximity (100-200 μm) to the root epidermal tissue (FIG. 3b,c) and was held at a fixed position in the growth MS media for the duration of each trial.

[3] = tested on: DII-Venus auxin-response reporter; assay: DII-Venus fluorescent auxin-response reporter seedlings, OEIP delivery; assay type: in vivo, Arabidopsis thaliana; details: for effect on DII-Venus fluorescence intensity: OEIP delivery to root tip, signal falls in presence of auxin
Source text: The DII-Venus reporter is characterized by absence or reduction in fluorescent signal intensity in the presence of auxin or increasing auxin levels, respectively. Conversely, in DR5, the presence or gain of fluorescent signal intensity indicates presence or increase of auxin concentrations, respectively. The relative auxin abundance is visualized faster by DII-Venus than by DR5^15, because the DII-Venus signal relies on a protein degradation mechanism rather than the slower transcriptional and translational production mechanisms of DR5.
Using DII-Venus seedlings, the fluorescent signal intensity was monitored and onset of strong fluorescence reduction was observed between 30 to 60 min (FIG. 5a,b).
as §1, with “12 h prior to the start of the experiments, 4 days post-germination (dpg) seedlings were positioned onto fresh plates of identical MS media composition additionally supplemented with 0.01 M KCl.” left out
A custom reoriented macro confocal laser-scanning microscope with a vertical stage was used to acquire images (Bergman-Labora, Sweden). The macro confocal consisted of a horizontally placed AZ100 macroscope (Nikon, Japan) adapted with a specially built XYZ motorized stage (Prior Scientific fitted by Bergman-Labora) and supplied with diascopic white light and episcopic fluorescence light (Nikon). […] Excitation was at 488 nm and emission detected with a 525/50 filter. DII Venus fluorescence intensities from a single layer were normalized to initial intensity, averaged and compared (Standard deviation of the mean). […]

[4] = tested on: DR5rev:GFP auxin-response reporter; assay: DR5rev:GFP fluorescent auxin-response reporter seedlings, OEIP delivery to elongation zone; assay type: in vivo, Arabidopsis thaliana; details: root elongation zone
Source text: A custom reoriented macro confocal laser-scanning microscope with a vertical stage was used to acquire images (Bergman-Labora, Sweden). The macro confocal consisted of a horizontally placed AZ100 macroscope (Nikon, Japan) adapted with a specially built XYZ motorized stage (Prior Scientific fitted by Bergman-Labora) and supplied with diascopic white light and episcopic fluorescence light (Nikon). A climate enclosure with passive humidification was designed to surround the stage area to keep plants in a humid, dark environment. The AZ100 macroscope was connected to a C2+ confocal laser scanning system (Nikon) equipped with lasers for 405 nm, 457/488/514 nm and 561 nm excitation and a transmitted light detector. […] Excitation was at 488 nm and emission detected with a 525/50 filter. DII Venus fluorescence intensities from a single layer were normalized to initial intensity, averaged and compared (Standard deviation of the mean). […]

| SMILES | activity in previous bioassays [1] | effect on root growth rate [2] | effect on DII-Venus fluorescence intensity [3] | effect on DR5 reporter fluorescent intensity [4] | root growth rate after 60 min of delivery ([2]; OEIP delivery at 1 μA, average of 5 trials, after 60 min) | root growth rate before the decrease ([2]; OEIP delivery at 1 μA, average of 5 trials, initial rate) | onset of strong fluorescence reduction ([3]; DII-Venus seedlings, OEIP delivery) | onset of fluorescence in plant tissues [4] |
| --- | --- | --- | --- | --- | --- | --- | --- | --- |
| O=C(O)CC1C(=O)Nc2ccccc21 (centres unmarked) [oxIAA, 2-oxindole-3-acetic acid] | inactive |  |  |  |  |  |  |  |
| O=C(O)c1ccccc1 [benzoic acid] |  | maintained their growth rates | preserved their fluorescence | did not display alterations in fluorescent intensity |  |  |  |  |
| O=C(O)Cc1c[nH]c2ccccc12 [IAA, indole-3-acetic acid] |  | rapid decrease in growth rate | strong and significant decrease in fluorescence | signal continued to increase between 2 and 3 hours | 2.4±0.7 μm min^−1 | 4.7±1.0 μm min^−1 | 30 to 60 min | 1 h |
